Experimental data as given in ChEMBL document CHEMBL2440083 (J Med Chem, 2013).

Key:
[1] = target: T1, Mu-type opioid receptor (Homo sapiens, UniProt P35372); assay: Agonist activity at human mu opioid receptor expressed in HEK293 cells assessed as inhibition of forskolin-stimulated cAMP accumulation by fluorescence assay; assay type: functional, cell-based
[2] = target: T1, Mu-type opioid receptor; assay: Agonist activity at human mu opioid receptor expressed in HEK293 cells assessed as beta-arrestin recruitment by chemiluminescence assay; assay type: cell-based
[3] = target: Voltage-dependent L-type calcium channel subunit alpha-1C (Homo sapiens, UniProt Q13936); assay: Inhibition of human Cav 1.2 ion channel expressed in HEK293 cells by whole-cell patch clamp technique; assay type: cell-based
[4] = system: Cynomolgus monkey; assay: Cardiotoxicity in cynomolgus monkey assessed as PR interval; assay type: toxicity, organism-based, Macaca fascicularis; details: in vivo
[5] = Cardiotoxicity in isolated rabbit left ventricular wedge model assessed as increase in QT interval at 0.3 uM; assay type: toxicity, tissue-based, Oryctolagus cuniculus, Heart left ventricle
[6] = system: Cynomolgus monkey; assay: Cardiotoxicity in cynomolgus monkey assessed as QT interval; assay type: toxicity, organism-based, Macaca fascicularis; details: in vivo
[7] = system: Cynomolgus monkey; assay: Cardiotoxicity in cynomolgus monkey assessed as QTc interval; assay type: toxicity, organism-based, Macaca fascicularis; details: in vivo
[8] = Cardiotoxicity in isolated rabbit left ventricular wedge model assessed as increase in Tp-e interval at 1 uM; assay type: toxicity, tissue-based, Oryctolagus cuniculus, Heart left ventricle
[9] = target: Voltage-gated inwardly rectifying potassium channel KCNH2 (Homo sapiens, UniProt Q12809); assay: Inhibition of human ERG channel expressed in HEK293 cells by whole-cell patch clamp technique; assay type: cell-based
[10] = target: T2, Sodium channel protein type 5 subunit alpha (Homo sapiens, UniProt Q14524); assay: Inhibition of human Nav 1.5 tonic ion channel expressed in HEK293 cells by whole-cell patch clamp technique; assay type: cell-based
[11] = target: Delta-type opioid receptor (Homo sapiens, UniProt P41143); assay: Agonist activity at human delta opioid receptor expressed in HEK293 cells assessed as inhibition of forskolin-stimulated cAMP accumulation by fluorescence assay; assay type: functional, cell-based
[12] = target: T2, Sodium channel protein type 5 subunit alpha; assay: Inhibition of human Nav 1.5 phasic ion channel expressed in HEK293 cells by whole-cell patch clamp technique; assay type: cell-based
[13] = target: Kappa-type opioid receptor (Homo sapiens, UniProt P41145); assay: Agonist activity at human kappa opioid receptor expressed in HEK293 cells assessed as inhibition of forskolin-stimulated cAMP accumulation by fluorescence assay; assay type: functional, cell-based
[14] = system: Cynomolgus monkey; assay: Cardiotoxicity in cynomolgus monkey assessed as QRS duration; assay type: toxicity, organism-based, Macaca fascicularis; details: in vivo
[15] = Cardiotoxicity in isolated rabbit left ventricular wedge model assessed as torsade de pointes score up to 30 uM; assay type: toxicity, tissue-based, Oryctolagus cuniculus, Heart left ventricle
[16] = Cardiotoxicity in isolated rabbit left ventricular wedge model assessed as proarrhyhmic event; assay type: toxicity, tissue-based, Oryctolagus cuniculus, Heart left ventricle
[17] = system: Mus musculus; assay: Analgesic effect in mouse at 6 mg/kg, sc after 30 mins by hot plate assay; assay type: functional; details: route subcutaneous
[18] = system: HEK293; assay: Selectivity ratio of EC50 for human mu opioid receptor expressed in HEK293 cells over EC50 for human delta opioid receptor expressed in HEK293 cells; assay type: cell-based
[19] = system: Mus musculus; assay: Analgesic effect in sc dosed mouse by hot plate assay; assay type: functional
[20] = system: Mus musculus; assay: Toxicity in mouse fecal boli accumulation model assessed as fecal boli production at equianalgesic dose, sc after 4 hrs relative to morphine; assay type: organism-based; details: in vivo
[21] = Cardiotoxicity in isolated rabbit left ventricular wedge model assessed as increase in QT interval at 1 uM; assay type: toxicity, tissue-based, Oryctolagus cuniculus, Heart left ventricle
[22] = system: HEK293; assay: Selectivity ratio of EC50 for human mu opioid receptor expressed in HEK293 cells over EC50 for human kappa opioid receptor expressed in HEK293 cells; assay type: cell-based
[23] = system: Mus musculus; assay: Analgesic effect in mouse at 3 mg/kg, sc after 30 mins by hot plate assay; assay type: functional; details: route subcutaneous
[24] = system: Mus musculus; assay: Toxicity in mouse glass bead model assessed as retention time of colonic motility at 3 mg/kg, sc; assay type: organism-based, Colon; design: dose 3 mg/kg, route subcutaneous; details: in vivo
[25] = Cardiotoxicity in isolated rabbit left ventricular wedge model assessed as torsade de pointes score at 0.3 to 1 uM; assay type: toxicity, tissue-based, Oryctolagus cuniculus, Heart left ventricle

T2 sequence (Q14524 whole entry): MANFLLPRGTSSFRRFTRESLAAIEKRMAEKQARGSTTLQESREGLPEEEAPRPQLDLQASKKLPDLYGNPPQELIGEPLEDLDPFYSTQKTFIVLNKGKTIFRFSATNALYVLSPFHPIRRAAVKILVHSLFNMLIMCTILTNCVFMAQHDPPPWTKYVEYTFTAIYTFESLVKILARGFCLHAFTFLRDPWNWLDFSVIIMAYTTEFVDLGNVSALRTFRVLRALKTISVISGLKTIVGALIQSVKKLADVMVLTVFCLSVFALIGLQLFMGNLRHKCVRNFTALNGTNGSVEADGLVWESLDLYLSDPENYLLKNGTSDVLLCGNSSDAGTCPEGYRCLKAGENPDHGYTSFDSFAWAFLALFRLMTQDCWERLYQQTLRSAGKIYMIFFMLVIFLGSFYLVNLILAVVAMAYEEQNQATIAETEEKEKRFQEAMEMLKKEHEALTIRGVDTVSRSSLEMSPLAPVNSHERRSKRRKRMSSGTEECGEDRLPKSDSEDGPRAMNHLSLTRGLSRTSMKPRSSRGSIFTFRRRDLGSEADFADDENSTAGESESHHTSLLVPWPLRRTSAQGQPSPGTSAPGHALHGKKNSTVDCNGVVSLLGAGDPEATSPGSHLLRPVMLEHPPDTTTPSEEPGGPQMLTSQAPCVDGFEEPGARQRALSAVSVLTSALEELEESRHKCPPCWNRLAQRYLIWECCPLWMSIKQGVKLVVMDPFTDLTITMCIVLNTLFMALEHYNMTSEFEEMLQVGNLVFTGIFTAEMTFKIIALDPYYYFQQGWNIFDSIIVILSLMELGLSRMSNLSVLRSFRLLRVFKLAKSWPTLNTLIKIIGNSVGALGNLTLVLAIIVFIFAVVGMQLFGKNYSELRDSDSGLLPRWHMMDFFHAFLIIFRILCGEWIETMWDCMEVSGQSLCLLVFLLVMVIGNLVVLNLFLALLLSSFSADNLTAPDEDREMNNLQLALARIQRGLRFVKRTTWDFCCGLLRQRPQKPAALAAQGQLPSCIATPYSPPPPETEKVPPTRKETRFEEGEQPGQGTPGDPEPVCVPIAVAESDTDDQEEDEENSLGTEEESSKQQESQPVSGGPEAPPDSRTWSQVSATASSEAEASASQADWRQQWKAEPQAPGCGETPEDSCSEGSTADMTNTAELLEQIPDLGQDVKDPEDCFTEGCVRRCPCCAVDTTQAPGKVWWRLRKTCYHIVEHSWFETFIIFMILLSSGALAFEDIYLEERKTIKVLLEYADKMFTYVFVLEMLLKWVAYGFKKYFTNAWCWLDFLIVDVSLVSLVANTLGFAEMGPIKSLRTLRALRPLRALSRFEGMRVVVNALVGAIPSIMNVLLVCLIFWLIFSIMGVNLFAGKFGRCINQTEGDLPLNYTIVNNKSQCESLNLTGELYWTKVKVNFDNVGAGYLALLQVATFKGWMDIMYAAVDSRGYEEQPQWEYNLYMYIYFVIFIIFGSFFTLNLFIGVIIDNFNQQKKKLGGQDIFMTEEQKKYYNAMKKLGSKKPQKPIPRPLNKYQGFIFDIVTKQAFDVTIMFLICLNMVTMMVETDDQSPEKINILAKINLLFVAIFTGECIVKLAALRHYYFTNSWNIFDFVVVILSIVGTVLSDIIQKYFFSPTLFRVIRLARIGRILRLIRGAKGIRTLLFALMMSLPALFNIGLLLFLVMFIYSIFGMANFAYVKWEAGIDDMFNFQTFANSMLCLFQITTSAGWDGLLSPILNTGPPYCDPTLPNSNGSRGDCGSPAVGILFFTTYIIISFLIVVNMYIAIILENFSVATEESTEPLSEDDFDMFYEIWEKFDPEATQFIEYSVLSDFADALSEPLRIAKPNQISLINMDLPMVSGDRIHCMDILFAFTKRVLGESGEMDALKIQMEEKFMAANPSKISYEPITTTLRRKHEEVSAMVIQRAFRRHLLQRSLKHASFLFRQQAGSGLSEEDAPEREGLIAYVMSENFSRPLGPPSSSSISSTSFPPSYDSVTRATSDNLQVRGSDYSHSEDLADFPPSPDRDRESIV
T1 sequence (P35372 whole entry): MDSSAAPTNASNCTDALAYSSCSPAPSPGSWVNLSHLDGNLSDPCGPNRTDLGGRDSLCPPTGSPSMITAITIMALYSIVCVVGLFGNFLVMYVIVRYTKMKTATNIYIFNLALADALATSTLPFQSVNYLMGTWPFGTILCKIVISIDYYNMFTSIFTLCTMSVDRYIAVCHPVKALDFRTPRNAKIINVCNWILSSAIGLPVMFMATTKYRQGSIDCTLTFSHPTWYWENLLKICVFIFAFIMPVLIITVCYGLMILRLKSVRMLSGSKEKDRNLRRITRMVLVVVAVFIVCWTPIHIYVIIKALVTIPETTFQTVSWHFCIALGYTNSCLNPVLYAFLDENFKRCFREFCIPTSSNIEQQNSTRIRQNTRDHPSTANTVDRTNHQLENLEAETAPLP
Chain of Delta-type opioid receptor (P41143 whole entry): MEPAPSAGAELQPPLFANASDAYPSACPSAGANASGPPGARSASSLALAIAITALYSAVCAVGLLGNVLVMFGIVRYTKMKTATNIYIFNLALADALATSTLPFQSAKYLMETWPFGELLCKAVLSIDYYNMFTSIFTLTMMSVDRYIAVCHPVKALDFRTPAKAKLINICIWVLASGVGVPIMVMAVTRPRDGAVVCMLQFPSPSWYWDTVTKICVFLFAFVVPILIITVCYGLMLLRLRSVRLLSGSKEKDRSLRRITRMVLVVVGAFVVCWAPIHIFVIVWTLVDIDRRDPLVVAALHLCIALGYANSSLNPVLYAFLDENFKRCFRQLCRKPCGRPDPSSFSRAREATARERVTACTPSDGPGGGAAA
Chain of Kappa-type opioid receptor (P41145 whole entry): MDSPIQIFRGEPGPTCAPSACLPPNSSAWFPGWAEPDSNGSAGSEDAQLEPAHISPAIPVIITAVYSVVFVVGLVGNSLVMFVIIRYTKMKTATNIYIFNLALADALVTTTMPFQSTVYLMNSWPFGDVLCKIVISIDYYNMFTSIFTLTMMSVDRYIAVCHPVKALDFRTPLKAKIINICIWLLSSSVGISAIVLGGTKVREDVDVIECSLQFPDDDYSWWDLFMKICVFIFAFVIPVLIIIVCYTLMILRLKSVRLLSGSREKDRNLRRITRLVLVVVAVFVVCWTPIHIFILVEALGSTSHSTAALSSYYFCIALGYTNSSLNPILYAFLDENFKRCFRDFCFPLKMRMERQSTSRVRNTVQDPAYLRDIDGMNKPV
Chain of Voltage-gated inwardly rectifying potassium channel KCNH2 (Q12809 whole entry): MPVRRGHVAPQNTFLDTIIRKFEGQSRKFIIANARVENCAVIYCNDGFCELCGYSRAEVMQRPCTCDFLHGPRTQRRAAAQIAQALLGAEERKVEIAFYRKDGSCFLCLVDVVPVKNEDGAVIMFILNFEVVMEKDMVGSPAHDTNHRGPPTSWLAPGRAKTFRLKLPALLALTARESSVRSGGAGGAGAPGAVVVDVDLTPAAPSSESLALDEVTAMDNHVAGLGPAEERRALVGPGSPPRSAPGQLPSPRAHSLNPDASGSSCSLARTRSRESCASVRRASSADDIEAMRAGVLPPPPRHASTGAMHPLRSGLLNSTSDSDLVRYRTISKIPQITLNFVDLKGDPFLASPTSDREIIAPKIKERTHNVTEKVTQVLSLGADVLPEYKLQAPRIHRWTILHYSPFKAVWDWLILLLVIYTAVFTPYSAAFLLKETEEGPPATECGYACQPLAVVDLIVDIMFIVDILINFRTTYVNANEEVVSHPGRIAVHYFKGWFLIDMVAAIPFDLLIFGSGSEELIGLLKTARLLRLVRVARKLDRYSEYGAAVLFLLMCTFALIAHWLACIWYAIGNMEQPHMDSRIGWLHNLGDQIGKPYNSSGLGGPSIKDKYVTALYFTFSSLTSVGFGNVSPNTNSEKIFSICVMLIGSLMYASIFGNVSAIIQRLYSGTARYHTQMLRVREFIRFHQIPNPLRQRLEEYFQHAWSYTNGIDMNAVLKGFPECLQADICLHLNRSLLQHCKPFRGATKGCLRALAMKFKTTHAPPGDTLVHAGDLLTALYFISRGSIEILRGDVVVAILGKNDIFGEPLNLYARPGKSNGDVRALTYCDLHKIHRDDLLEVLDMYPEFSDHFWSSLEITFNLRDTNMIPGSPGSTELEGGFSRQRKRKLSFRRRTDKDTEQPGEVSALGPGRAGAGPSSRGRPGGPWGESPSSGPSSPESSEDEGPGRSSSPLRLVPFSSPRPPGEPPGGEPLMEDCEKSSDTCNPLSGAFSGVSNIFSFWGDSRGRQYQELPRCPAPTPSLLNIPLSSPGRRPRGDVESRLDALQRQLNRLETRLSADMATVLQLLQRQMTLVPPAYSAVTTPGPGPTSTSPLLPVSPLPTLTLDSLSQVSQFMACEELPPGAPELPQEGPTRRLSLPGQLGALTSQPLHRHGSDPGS

For `CC(C)(NCC[C@@]1(c2ccc(F)cc2)CCOC2(CCCC2)C1)c1ccccc1`, the EC50 [1] was 3160 nM.

Compound `c1ccc([C@]2(CCNCc3ccncc3)CCOC3(CCCC3)C2)nc1` has an EC50 [1] of 1260 nM.

With `Cc1ccc(C2(CCNCc3ccccc3O)CCOCC2)cc1` the EC50 [1] was 10000 nM.

`Cc1cc(CNCC[C@@]2(c3ccccn3)CCOC3(CCCC3)C2)sc1C` showed an EC50 [1] of 5.01 nM and an EC50 [2] of 501 nM.

For `Cc1cc(C)c(CNCC[C@@]2(c3ccccn3)CCOC3(CCCC3)C2)s1`, the EC50 [1] was 25.1 nM and the EC50 [2] was 631 nM.

Compound `c1ccc(CNCC[C@@]2(c3ccccn3)CCOC3(CCCC3)C2)nc1` has an EC50 [1] of 158 nM.

`c1ccc([C@]2(CCNCc3ccsc3)CCOC3(CCCC3)C2)nc1` showed an EC50 [1] of 12.6 nM and an EC50 [2] of 63.1 nM.

Work on `Clc1ccccc1CNCC[C@@]1(c2ccccn2)CCOC2(CCCC2)C1` yielded an EC50 [1] of 10 nM.

In the case of `C[C@H](NCC[C@@]1(c2ccc(F)cc2)CCOC2(CCCC2)C1)c1ccccc1`, the EC50 [1] is reported as 501 nM.

`c1ccc([C@]2(CCNCc3cccnc3)CCOC3(CCCC3)C2)nc1` gave an EC50 [1] of 200 nM.

Work on `Cc1cc(CNCC[C@@]2(c3ccccn3)CCOC3(CCCC3)C2)oc1C` yielded an EC50 [1] of 31.6 nM and an EC50 [2] of 316 nM.

For `c1ccc([C@]2(CCNCc3ccncn3)CCOC3(CCCC3)C2)nc1`, the EC50 [1] was 794 nM and the EC50 [2] was 2000 nM.

For `C[C@@H](NCC[C@@]1(c2ccc(F)cc2)CCOC2(CCCC2)C1)c1ccccc1`, the EC50 [1] was 1000 nM.

With `Cc1ccsc1CNCC[C@@]1(c2ccccn2)CCOC2(CCCC2)C1` the EC50 [1] was 6.31 nM.

With `CC[C@]1(C)CC(CCNCc2ccccc2O)(c2ccc(F)cc2)CCO1` (stereo partly drawn) the EC50 [1] was 39.8 nM and the EC50 [2] was 1580 nM.

Compound `Cc1ccc(CNCC[C@@]2(c3ccccn3)CCOC3(CCCC3)C2)o1` has an EC50 [1] of 50.1 nM and an EC50 [2] of 200 nM.

`Fc1ccc(C2(CCNCc3ccccc3)CCOC3(CCCCC3)C2)cc1` (stereo not drawn) gave an EC50 [1] of 398 nM and an EC50 [2] of 7940 nM.

`Fc1ccc(C2(CCNCc3ccccc3)CCOC3(CCCC3)C2)cc1` (racemic) showed an EC50 [1] of 79.4 nM and an EC50 [2] of 631 nM.

In the case of `CC1(C)CC(CCNCc2ccccc2)(c2ccc(F)cc2)CCO1` (stereo not drawn), the EC50 [1] is reported as 1580 nM.

With `Clc1cccc(CNCC[C@@]2(c3ccccn3)CCOC3(CCCC3)C2)c1` the EC50 [1] was 2.51 nM and the EC50 [2] was 50.1 nM.

For `COc1ccsc1CNCC[C@@]1(c2ccccn2)CCOC2(CCCC2)C1` [OLICERIDINE], the IC50 [3] was 36000 nM, the Activity [4] was “Non-toxic” and the Activity [5] was 3%. For the same compound, the Activity [6] was “Non-toxic”, the Activity [7] was “Non-toxic” and the Activity [8] was 7%. The IC50 [9] was 6200 nM, the IC50 [10] was 16500 nM and the EC50 [11] was 2800 nM. For the same compound, the IC50 [12] was 4700 nM, the EC50 [13] was 1400 nM and the Activity [14] was “Non-toxic”. The Activity [15] was “Non-toxic” and the Activity [16] was “Non-toxic”.

In the case of `Fc1ccc([C@]2(CCNCc3ccccc3)CCOC3(CCCC3)C2)cc1`, the EC50 [1] is reported as 31.6 nM and the EC50 [2] is reported as 398 nM.

Work on `c1ccc(CNCC[C@]2(c3ccccn3)CCOC3(CCCC3)C2)cc1` yielded an EC50 [1] of 631 nM and an EC50 [2] of 15800 nM.

In the case of `c1ccc(CNCC[C@@]2(c3ccccn3)CCOC3(CCCC3)C2)cc1`, the EC50 [1] is reported as 12.6 nM and the EC50 [2] is reported as 158 nM.

For `CC[C@]1(C)CC(CCNCc2ccccc2O)(c2ccc(C)cc2)CCO1` (stereo partly drawn), the EC50 [1] was 501 nM and the EC50 [2] was 2000 nM.

For `c1ccc([C@]2(CCNCc3cnccn3)CCOC3(CCCC3)C2)nc1`, the EC50 [1] was 631 nM.

Compound `Fc1ccc([C@@]2(CCNCc3ccccc3)CCOC3(CCCC3)C2)cc1` has an EC50 [1] of 501 nM and an EC50 [2] of 7940 nM.

Compound `CN1CC[C@]23c4c5ccc(O)c4O[C@H]2[C@@H](O)C=C[C@H]3[C@H]1C5` [MORPHINE] has an MPE [17] of 69%.

`Cc1csc(CNCC[C@@]2(c3ccccn3)CCOC3(CCCC3)C2)c1` gave an EC50 [1] of 5.01 nM and an EC50 [2] of 398 nM.

`c1ccc([C@]2(CCNCc3cccs3)CCOC3(CCCC3)C2)nc1` gave an IC50 [3] greater than 100000 nM, a Ratio EC50 [18] of 56 and an ED50 [19] of 1.1 mg/kg. For the same compound, the “fold change (FC)” value [20] was 2, the EC50 [1] was 15.8 nM and the Activity [21] was 40%. For the same compound, the Ratio EC50 [22] was 71, the Activity [8] was 65% and the IC50 [9] was 2300 nM. The IC50 [10] was 20000 nM, the MPE [23] was 79% and the Retention_time [24] was 65 min. For the same compound, the Activity [25] was “Toxic”, the EC50 [11] was 750 nM and the IC50 [12] was 9000 nM. For the same compound, the EC50 [2] was 251 nM and the EC50 [13] was 900 nM.

Work on `c1ccc([C@]2(CCNCC3CCCC3)CCOC3(CCCC3)C2)nc1` yielded an EC50 [1] of 31.6 nM.

`c1ccc([C@]2(CCNCc3ccc4ccccc4c3)CCOC3(CCCC3)C2)nc1` showed an EC50 [1] of 158 nM and an EC50 [2] of 20000 nM.

For `CCC1(CC)CC(CCNCc2ccccc2)(c2ccc(F)cc2)CCO1` (stereo not drawn), the EC50 [1] was 251 nM and the EC50 [2] was 6310 nM.

`c1ccc(CNCCC2(c3ccccn3)CCOC3(CCCC3)C2)cc1` (racemic) gave an EC50 [1] of 50.1 nM and an EC50 [2] of 200 nM.

Work on `Cc1ccc(CNCC[C@@]2(c3ccccn3)CCOC3(CCCC3)C2)s1` yielded an EC50 [1] of 15.8 nM.
